Data from ChEMBL document CHEMBL5038581, “Design, synthesis, and biological evaluation of novel dual inhibitors targeting lysine specific demethylase 1 (LSD1) and histone deacetylases (HDAC) for treatment of gastric cancer” (Eur J Med Chem, 2021).

Tests used:
CYP3A4 = CYP3A4 (Homo sapiens, UniProt P08684); experiment: in vitro; settings: probe testosterone
CYP2D6 = CYP2D6 (Homo sapiens, UniProt P10635); experiment: in vitro; settings: probe dextromethorphan
CYP2D6, sequence (P10635 whole entry): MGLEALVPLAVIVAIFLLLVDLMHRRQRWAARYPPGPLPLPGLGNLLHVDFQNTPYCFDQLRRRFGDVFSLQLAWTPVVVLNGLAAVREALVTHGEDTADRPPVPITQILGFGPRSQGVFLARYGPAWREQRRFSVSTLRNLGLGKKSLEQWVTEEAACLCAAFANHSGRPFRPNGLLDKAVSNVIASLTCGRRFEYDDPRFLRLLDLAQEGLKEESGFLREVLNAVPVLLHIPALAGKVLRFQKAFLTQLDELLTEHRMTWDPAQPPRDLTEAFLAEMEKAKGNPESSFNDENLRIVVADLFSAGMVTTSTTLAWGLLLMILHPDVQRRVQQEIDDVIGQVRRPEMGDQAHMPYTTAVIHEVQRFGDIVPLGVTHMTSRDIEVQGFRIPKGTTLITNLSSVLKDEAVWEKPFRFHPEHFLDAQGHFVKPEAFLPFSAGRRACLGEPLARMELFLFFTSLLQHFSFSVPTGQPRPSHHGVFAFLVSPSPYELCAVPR

CYP3A4, sequence (P08684 whole entry): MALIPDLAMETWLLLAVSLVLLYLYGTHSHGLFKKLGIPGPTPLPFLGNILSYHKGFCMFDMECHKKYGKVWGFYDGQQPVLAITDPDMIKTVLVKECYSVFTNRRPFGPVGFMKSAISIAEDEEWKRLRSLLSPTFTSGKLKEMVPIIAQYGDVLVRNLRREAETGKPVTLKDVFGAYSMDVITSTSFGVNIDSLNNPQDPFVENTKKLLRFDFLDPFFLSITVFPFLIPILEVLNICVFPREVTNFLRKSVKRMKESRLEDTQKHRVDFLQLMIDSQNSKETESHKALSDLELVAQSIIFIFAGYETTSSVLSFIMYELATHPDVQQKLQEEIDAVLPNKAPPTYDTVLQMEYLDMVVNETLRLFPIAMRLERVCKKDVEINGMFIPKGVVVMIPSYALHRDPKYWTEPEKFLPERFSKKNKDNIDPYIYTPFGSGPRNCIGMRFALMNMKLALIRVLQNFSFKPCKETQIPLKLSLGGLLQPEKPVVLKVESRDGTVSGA

| Compound | inhibition at 0.1 µM (CYP3A4) | inhibition at 1 µM (CYP2D6) |
| --- | --- | --- |
| CC(=O)N1CCN(c2ccc(OCC3COC(Cn4ccnc4)(c4ccc(Cl)cc4Cl)O3)cc2)CC1 (configuration not stated) [KETOCONAZOLE] | 65.9% | – |
| C=C[C@H]1C[N@@]2CC[C@H]1C[C@@H]2[C@@H](O)c1ccnc2ccc(OC)cc12 [QUINIDINE] | – | 91.3% |
